Source: ChEMBL document CHEMBL1201862, “PubChem BioAssay data set” (2004)
Each block holds one compound with its values, some of them ahead of it. Calls of active or inactive are those of the source.

What was measured:
[1] = general mammalian cell viability loss – activator set, cherry-pick, cytotoxicity control for miR-122 modulator project, dose response (AID 720690); type: functional, cell-based;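 note: HEK293T human cells scored for general mammalian cytotoxicity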
[2] = general mammalian cell viability loss – inhibitor set, cherry-pick, set 2, cytotoxicity control for miR-122 modulator project, dose response (AID 720697); type: functional, cell-based
cells = type: functional, cell-based
[3] = target: T1, Nuclear receptor subfamily 0 group B member 1 (Homo sapiens, UniProt P51843); type: functional, cell-based;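 note: HEK293T cells transfected with SF-1 and DAX-1 plus StAR promoter luciferase reporter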
T1 sequence (P51843 whole entry): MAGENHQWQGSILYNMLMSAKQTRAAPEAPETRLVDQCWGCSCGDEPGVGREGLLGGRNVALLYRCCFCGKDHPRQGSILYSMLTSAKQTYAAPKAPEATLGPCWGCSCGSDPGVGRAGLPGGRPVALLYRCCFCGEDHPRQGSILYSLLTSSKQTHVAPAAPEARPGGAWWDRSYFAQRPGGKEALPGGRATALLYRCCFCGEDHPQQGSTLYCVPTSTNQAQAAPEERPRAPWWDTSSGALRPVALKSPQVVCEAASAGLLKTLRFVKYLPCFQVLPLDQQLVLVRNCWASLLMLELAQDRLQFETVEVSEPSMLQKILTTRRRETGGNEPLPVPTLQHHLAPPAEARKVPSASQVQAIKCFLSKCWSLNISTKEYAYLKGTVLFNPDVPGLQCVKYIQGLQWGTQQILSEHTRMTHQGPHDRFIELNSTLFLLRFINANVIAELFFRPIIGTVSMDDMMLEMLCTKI

[4] = rise of 2N DNA cells, HeLa – IC50, dose response (AID 1117349); type: functional, cell-based
[5] = CellTiter-Glo luminescence survival assay, SW480 colon tumor line, concentration-response curve, half-maximal inhibitory concentration (AID 1117338); type: functional
[6] = RKO cell viability reduction, dose response, CellTiter-Glo luminescence (AID 1117322); type: functional
[7] = cytotoxicity toward HCT116 cells – cell-based, CellTiter-Glo luminescence, IC50, dose response (AID 1117332); type: functional; settings: HCT-116
[8] = SNU-C1 cell viability reduction, dose response, CellTiter-Glo luminescence (AID 1117323); type: functional, cell-based
[9] = cytotoxicity toward Colo320 cells – cell-based, CellTiter-Glo luminescence, IC50, dose response (AID 1117334); type: functional; settings: COLO 320
[10] = rise of 4N DNA cells, HeLa – IC50, dose response (AID 1117351); type: functional, cell-based
[11] = cytotoxicity toward HT-29 cells – cell-based, CellTiter-Glo luminescence, IC50, dose response (AID 1117330); type: functional
[12] = blockers of HIV-1 envelope-mediated cell-cell fusion – cherry-pick, dose response (AID 652057); type: functional, cell-based
[13] = viability loss in CEM21 cells – cell-based, CellTiter-Glo luminescence, cherry-picked, cytotoxicity control for viral fusion inhibitor project, dose response (AID 652042); type: functional;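 note: potency for signal decrease meaning cytotoxicity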
[14] = blockers of HIV-1 ZM109 envelope-driven cell-cell fusion – HeLa effector, CEM target cells, luciferase, cherry-pick, dose response (AID 652058); type: functional, cell-based;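 note: luciferase signal from HIV-1 Env mediated cell-cell fusion of effector and target cells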
[15] = off-target signal loss in HeLa-CEM21 co-culture – HeLa F-luc CTL cells, cherry-picked, counter-screen for HIV-1 Env fusion inhibitor project, dose response (AID 652040); type: functional, cell-based;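 note: potency for signal decrease marking cytotoxic or nonspecific inhibition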
[16] = HIV-1 AD8 envelope cell-cell fusion blockers – cherry-pick, dose response (AID 652062); type: functional, cell-based;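 note: luciferase signal from cell-cell fusion driven by HIV-1 clade B AD8 Env; potency is for inhibitors of fusion seen as a drop in luminescence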
[17] = target: T2, Corticotropin-releasing factor receptor 2/Corticotropin-releasing factor-binding protein (Homo sapiens, UniProt P24387+Q13324); assay: Dose Response confirmation of uHTS hits for small molecule antagonists of the CRF-binding protein and CRF-R2 receptor complex.; type: functional; settings: read-out: IC50_Mean
T2 sequence (Q13324 whole entry): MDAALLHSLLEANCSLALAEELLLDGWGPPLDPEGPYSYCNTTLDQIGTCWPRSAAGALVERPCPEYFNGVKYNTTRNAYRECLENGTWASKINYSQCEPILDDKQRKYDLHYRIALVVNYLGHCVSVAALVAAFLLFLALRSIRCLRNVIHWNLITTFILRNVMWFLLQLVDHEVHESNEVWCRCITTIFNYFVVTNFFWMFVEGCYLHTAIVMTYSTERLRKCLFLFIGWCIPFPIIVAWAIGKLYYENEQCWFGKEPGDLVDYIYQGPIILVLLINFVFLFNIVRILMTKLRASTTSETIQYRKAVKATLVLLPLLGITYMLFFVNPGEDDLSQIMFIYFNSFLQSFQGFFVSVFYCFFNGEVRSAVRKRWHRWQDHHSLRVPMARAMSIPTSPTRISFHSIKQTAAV
T2 sequence (P24387 whole entry): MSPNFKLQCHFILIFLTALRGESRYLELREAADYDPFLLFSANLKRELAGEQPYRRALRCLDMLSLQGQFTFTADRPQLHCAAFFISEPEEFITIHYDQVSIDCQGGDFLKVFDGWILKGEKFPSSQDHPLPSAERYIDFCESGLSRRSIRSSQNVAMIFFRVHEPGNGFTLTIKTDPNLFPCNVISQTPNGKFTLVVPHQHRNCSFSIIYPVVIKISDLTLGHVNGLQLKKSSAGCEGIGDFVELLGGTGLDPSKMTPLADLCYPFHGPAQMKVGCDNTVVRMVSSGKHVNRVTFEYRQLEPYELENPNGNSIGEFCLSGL

[18] = target: Tyrosine-protein phosphatase non-receptor type 11 (Homo sapiens, UniProt Q06124); assay: PTPN11 enzyme inhibitors – biochemical, selectivity assay for STEP inhibitor project, dose response (AID 602367); type: functional; settings: read-out: IC50_Mean
[19] = target: Tyrosine-protein phosphatase non-receptor type 5 (Homo sapiens, UniProt P54829); assay: PTPN5 enzyme inhibition – biochemical, fluorescence intensity, uHTS hits, confirmation (AID 602372); type: functional; settings: read-out: IC50_Mean
[20] = target: T2, Corticotropin-releasing factor receptor 2/Corticotropin-releasing factor-binding protein; assay: activators of CRF receptor 2 with binding protein – uHTS hits, confirmation (AID 602473); type: functional; settings: read-out: EC50_Mean
[21] = target: Dual specificity protein phosphatase 3 (Homo sapiens, UniProt P51452); assay: VHR phosphatase inhibition, dose response, selectivity assay for STEP inhibitor project, biochemical (AID 602374); type: functional; settings: read-out: IC50_Mean
[22] = target: T3, Low molecular weight phosphotyrosine protein phosphatase (Homo sapiens, UniProt P24666); type: functional; settings: read-out: IC50_Mean
T3 sequence (P24666 whole entry): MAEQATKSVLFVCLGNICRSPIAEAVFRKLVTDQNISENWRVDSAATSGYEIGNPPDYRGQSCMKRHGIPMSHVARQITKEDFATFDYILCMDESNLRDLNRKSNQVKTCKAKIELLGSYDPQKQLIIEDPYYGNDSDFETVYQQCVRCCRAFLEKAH

[23] = target: T3, Low molecular weight phosphotyrosine protein phosphatase; type: functional; settings: read-out: IC50_Mean; remark: listed apart in the source
Beta-galactosidase = Beta-galactosidase (Escherichia coli, UniProt Q8VNN2); assay: Dose response counterscreen for EBI2 assay utilizing the enzyme, b-galactosidase.; type: functional
[24] = target: DNA repair protein RAD52 homolog (Homo sapiens, UniProt P43351); type: functional, biochemical
H9c2 = assay: cells; type: functional, cell-based; settings: Rattus norvegicus, H9c2, Myocardium;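 note: confirmatory concentration-response retest of ultra-high-throughput screening hits for modulation of myocardial damage; cell death induced by hydrogen peroxide oxidative stress; compound pretreatment for 60 min then peroxide exposure for 2 h; potency is for protecting the cells against peroxide damage rather than for killing them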
Paired box protein Pax-8 = Paired box protein Pax-8 (Homo sapiens, UniProt Q06710); assay: PAX8 transcriptional activity inhibition in RMG-I – RMG-I cells, luciferase, cherry-pick, dose response (AID 687027); type: functional, cell-based;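 note: luciferase reporter driven by Pax8 target thyroperoxidase promoter measured by SteadyGlo luminescence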
[25] = OVCAR-3 cell viability loss – plate reader, dry powder samples, PAX8 inhibitor project, dose response (AID 743044); type: functional, cell-based
[26] = IGROV1 cell killing – plate reader, dry powder samples, PAX8 inhibitor project, dose response (AID 743043); type: functional, cell-based; settings: IGROV-1
[27] = target: FAD-linked sulfhydryl oxidase ALR (Homo sapiens, UniProt P55789); assay: ALR-catalysed DTT oxidation blockers – biochemical, H2O2 detection, luminescence, cherry-pick, dose response (AID 493248)
Mu-type opioid receptor = Mu-type opioid receptor (Homo sapiens, UniProt P35372); type: functional, cell-based;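 note: U2OS cells with beta-arrestin recruitment to OPRM1 by beta-gal complementation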
[28] = target: 5-hydroxytryptamine receptor 2A (Mus musculus, UniProt P35363); type: functional, cell-based;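 note: CHO-K1 cells with tagged receptor and beta-arrestin; agonist potency measured as compound-induced activation of the receptor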
[29] = target: T4, Carboxy-terminal domain RNA polymerase II polypeptide A small phosphatase 1 (Homo sapiens, UniProt Q9GZU7); assay: CTDSP1 inhibitors, concentration-response, biochemical, absorbance readout, ultra-high-throughput screen actives (AID 540297); type: functional
T4 sequence (Q9GZU7 whole entry): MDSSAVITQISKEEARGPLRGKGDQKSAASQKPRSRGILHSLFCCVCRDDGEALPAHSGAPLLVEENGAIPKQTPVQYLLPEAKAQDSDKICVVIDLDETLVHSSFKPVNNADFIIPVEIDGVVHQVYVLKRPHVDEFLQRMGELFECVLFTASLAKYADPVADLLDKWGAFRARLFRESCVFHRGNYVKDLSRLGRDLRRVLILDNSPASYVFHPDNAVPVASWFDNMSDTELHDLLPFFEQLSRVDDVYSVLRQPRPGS

[30] = target: T5, Small ubiquitin-related modifier 1 (Homo sapiens, UniProt P63165); assay: SUMO1 protein interaction blockers, potency – biochemical, fluorescence polarization, uHTS hits, dose response (AID 624382); type: functional; settings: read-out: IC50_Mean
[31] = target: T5, Small ubiquitin-related modifier 1; assay: SUMO1 protein-protein binding blockers, potency – biochemical, FRET, dose response (AID 624383); type: functional; settings: read-out: IC50_Mean
[32] = target: Arf-GAP with SH3 domain, ANK repeat and PH domain-containing protein 1 (Homo sapiens, UniProt Q9ULH1); type: functional;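 note: biochemical fluorescence polarization dose–response screen measuring inhibition of ASAP1; ASAP1 GAP domain stimulating GTP hydrolysis by truncated human ARF1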
[33] = Trypanosoma cruzi growth suppression in host cells – NIH3T3 host cells, beta-gal luminescence, confirmation (AID 2044); type: functional, cell-based;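 note: intracellular parasites grown in NIH/3T3 mouse fibroblasts as host cells; luminescent beta-galactosidase reporter signal from transgenic T. cruzi replicating inside host cells; inhibitors lower the luminescence signal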
[34] = NIH3T3 cell viability loss – ATP luminescence, mouse fibroblasts, counter-screen, dose response (AID 2010); type: functional, cell-based;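 note: cells exposed to compound for about 90 hours before reading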
[35] = target: Histone-lysine N-methyltransferase NSD2 (Homo sapiens, UniProt O96028); type: biochemical

Chain of 5-hydroxytryptamine receptor 2A (P35363 whole entry, the tested form may be a part): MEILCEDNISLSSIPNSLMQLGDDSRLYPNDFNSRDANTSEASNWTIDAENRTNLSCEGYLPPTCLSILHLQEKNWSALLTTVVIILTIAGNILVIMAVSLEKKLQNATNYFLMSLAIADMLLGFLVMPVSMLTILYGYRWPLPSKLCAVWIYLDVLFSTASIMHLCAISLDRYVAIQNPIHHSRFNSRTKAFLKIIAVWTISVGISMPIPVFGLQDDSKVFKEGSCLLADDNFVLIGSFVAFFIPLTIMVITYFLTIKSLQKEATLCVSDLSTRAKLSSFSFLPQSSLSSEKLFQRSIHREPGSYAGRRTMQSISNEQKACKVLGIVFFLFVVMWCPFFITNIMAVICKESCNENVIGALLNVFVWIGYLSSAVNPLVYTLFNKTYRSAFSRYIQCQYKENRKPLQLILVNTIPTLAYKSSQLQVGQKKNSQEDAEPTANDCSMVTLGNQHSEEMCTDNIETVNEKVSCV
T5 sequence (P63165 whole entry): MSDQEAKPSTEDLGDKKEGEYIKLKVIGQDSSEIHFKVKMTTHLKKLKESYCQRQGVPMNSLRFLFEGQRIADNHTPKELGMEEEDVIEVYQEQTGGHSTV
Chain of Arf-GAP with SH3 domain, ANK repeat and PH domain-containing protein 1 (Q9ULH1 whole entry, the tested form may be a part): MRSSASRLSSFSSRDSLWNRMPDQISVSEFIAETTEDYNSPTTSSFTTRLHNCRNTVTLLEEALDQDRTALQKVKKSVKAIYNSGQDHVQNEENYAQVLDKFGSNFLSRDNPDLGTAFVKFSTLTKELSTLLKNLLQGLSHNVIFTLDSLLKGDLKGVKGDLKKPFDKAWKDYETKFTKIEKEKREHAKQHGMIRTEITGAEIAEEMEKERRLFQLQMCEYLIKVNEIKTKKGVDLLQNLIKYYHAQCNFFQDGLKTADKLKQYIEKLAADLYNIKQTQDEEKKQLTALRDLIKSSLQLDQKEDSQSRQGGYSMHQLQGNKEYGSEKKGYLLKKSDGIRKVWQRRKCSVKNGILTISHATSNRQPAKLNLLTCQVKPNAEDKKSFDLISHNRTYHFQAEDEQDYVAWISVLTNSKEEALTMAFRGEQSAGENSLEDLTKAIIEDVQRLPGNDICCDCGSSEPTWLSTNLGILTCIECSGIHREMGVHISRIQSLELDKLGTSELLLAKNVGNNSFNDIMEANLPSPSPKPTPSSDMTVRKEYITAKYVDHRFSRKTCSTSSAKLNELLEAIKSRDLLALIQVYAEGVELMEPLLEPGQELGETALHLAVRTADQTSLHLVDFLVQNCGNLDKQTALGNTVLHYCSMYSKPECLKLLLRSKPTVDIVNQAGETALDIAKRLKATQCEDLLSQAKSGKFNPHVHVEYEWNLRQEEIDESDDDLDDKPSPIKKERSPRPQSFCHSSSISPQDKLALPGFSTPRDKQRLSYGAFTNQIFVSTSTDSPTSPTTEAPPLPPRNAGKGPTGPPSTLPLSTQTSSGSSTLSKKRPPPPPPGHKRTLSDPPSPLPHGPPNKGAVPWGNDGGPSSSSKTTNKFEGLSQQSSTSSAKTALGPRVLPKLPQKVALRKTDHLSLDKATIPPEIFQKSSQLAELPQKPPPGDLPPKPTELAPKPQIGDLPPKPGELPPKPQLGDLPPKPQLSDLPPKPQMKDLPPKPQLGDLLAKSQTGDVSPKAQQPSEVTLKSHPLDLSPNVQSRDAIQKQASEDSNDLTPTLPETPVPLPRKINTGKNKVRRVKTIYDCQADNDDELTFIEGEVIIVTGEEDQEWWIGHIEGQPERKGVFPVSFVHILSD
Chain of Tyrosine-protein phosphatase non-receptor type 5 (P54829 whole entry): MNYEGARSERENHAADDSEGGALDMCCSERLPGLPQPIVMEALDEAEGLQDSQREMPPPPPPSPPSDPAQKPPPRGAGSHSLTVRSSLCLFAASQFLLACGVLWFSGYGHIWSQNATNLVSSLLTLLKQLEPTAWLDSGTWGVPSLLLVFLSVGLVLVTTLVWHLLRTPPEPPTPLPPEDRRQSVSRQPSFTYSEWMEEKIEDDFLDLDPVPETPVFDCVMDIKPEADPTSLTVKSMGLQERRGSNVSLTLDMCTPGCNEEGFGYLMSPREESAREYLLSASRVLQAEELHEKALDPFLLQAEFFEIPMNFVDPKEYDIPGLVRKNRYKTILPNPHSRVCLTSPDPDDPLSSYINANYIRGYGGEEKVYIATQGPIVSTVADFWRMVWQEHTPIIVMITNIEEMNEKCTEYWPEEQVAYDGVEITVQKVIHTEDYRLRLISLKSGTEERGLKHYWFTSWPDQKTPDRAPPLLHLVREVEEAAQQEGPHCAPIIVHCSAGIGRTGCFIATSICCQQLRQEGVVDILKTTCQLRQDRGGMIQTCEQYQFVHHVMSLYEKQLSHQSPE
Chain of Dual specificity protein phosphatase 3 (P51452 whole entry): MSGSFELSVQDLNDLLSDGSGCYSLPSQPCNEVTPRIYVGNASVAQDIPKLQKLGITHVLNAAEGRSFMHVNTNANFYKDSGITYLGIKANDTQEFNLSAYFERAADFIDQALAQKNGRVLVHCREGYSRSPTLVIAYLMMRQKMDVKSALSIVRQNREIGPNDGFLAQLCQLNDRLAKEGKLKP
Chain of Beta-galactosidase (Q8VNN2 whole entry): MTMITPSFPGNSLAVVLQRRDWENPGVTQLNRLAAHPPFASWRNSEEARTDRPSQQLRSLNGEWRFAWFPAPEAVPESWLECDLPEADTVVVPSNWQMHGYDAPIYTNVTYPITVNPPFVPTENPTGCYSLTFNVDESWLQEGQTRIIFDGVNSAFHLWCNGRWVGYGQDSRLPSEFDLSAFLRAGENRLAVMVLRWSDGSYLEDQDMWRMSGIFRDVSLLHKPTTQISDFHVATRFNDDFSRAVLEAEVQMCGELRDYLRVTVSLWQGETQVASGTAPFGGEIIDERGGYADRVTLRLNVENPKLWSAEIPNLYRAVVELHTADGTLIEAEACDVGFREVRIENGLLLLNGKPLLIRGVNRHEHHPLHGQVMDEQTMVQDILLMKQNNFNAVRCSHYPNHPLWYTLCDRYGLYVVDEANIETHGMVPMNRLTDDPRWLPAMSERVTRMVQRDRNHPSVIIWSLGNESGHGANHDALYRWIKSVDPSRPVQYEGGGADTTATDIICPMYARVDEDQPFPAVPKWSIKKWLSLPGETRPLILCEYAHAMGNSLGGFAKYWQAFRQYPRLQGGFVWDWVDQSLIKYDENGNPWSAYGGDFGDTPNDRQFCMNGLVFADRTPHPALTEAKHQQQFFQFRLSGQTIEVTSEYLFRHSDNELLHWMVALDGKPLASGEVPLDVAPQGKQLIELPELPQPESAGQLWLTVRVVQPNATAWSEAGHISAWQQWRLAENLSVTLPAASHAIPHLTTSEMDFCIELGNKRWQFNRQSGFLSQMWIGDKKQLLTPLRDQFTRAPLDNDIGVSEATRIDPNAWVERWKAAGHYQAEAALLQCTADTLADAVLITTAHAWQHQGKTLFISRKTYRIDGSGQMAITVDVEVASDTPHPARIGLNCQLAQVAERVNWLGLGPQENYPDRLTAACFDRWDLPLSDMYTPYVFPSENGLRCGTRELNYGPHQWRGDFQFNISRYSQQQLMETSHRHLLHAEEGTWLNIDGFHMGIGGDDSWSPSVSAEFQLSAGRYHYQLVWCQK
Chain of Mu-type opioid receptor (P35372 whole entry): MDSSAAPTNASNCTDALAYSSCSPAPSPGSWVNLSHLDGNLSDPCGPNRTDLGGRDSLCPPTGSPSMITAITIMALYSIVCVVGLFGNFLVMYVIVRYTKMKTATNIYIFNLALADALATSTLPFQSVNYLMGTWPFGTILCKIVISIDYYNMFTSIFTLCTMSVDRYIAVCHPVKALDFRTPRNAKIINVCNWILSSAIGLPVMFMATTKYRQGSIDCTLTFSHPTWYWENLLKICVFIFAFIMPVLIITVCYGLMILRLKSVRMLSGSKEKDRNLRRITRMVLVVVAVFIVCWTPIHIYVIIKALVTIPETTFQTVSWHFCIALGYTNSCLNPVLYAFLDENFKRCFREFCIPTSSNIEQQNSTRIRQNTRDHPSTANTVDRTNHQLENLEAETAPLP
Chain of FAD-linked sulfhydryl oxidase ALR (P55789 whole entry): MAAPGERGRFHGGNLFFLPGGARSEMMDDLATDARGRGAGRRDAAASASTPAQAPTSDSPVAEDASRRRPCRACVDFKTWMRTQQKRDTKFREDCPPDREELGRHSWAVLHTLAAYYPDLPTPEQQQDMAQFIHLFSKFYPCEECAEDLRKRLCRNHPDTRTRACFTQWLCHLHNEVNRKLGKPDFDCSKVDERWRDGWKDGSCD
Chain of DNA repair protein RAD52 homolog (P43351 whole entry): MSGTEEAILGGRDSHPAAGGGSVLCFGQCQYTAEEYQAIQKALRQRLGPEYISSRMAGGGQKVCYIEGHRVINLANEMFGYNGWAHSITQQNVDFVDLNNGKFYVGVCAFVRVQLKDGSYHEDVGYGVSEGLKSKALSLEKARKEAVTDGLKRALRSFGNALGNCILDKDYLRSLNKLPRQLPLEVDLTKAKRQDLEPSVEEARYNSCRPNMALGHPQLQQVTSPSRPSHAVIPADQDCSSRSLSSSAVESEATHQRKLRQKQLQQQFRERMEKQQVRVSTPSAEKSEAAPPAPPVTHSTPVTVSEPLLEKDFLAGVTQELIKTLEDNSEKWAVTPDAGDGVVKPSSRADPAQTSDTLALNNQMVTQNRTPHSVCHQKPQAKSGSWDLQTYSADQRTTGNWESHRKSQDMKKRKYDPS
Chain of Paired box protein Pax-8 (Q06710 whole entry): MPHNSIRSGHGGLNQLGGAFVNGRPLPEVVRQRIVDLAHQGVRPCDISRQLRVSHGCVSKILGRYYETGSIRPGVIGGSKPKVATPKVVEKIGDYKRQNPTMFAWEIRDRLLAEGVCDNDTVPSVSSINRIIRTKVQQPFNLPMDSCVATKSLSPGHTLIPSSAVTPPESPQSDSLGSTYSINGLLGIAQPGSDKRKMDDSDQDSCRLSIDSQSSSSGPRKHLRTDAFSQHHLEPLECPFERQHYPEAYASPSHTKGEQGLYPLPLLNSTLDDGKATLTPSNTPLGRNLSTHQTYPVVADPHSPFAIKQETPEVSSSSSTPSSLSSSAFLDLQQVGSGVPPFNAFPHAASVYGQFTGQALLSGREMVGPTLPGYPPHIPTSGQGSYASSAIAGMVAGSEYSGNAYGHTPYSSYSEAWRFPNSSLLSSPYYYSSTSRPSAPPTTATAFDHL

SMILES: C[C@H]1CN([C@@H](C)CO)S(=O)(=O)c2ccc(-c3ccccc3F)cc2O[C@@H]1CN(C)Cc1cccnc1
AC50 [1]: 23 µM (active)

SMILES: C[C@@H]1CN([C@@H](C)CO)C(=O)c2cc(NC(=O)NC3CCCCC3)ccc2O[C@@H]1CN(C)C(=O)Nc1ccc2c(c1)OCO2
AC50 [2]: 9.33 µM (active)

SMILES: COC(=O)Nc1nc2ccc(C(=O)C3CC3)cc2[nH]1 [CYCLOBENDAZOLE]
IC50 (cells): > 67.5 µM (inactive)
IC50 [3]: > 67.5 µM (inactive)
IC50 [4]: 0.417 µM (active)
IC50 [5]: > 20 µM (inactive)
IC50 [6]: 0.162 µM (active)
IC50 [7]: 0.174 µM (active)
IC50 [8]: > 20 µM (inactive)
IC50 [9]: 0.156 µM (active)
IC50 [10]: 0.416 µM (active)
IC50 [11]: 1.68 µM (active)

SMILES: COC(=O)[C@]12C[C@H](CC(=O)NCC3CCCCC3)C(=O)N(CCC3=CCCCC3)C1=C[C@H](C(C)(C)C)O[C@@H]2C
AC50 [12]: 2.45 µM (active)
AC50 [13]: 21.5 µM (active)
AC50 [14]: 3.66 µM (active)
AC50 [15]: 3.68 µM (active)
AC50 [16]: 3.6 µM (active)

IC50 [17]: > 47.1 µM (inactive)
IC50 [18]: 1.98 µM (active)
IC50 [19]: 13.3 µM (active)
EC50 [20]: > 53 µM (inactive)
IC50 [21]: 1.77 µM (active)
IC50 [22]: 16.1 µM (active)
IC50 [23]: 7.06 µM (active)
SMILES: O=[N+]([O-])c1ccc(O)c(Nc2ncnc3ccccc23)c1

IC50 (Beta-galactosidase): > 80 µM (inactive)
SMILES: COc1ccc(OCC(=O)N2CCN(S(=O)(=O)c3ccc(Cl)s3)CC2)cc1

AC50 [24]: 21.7 µM (active)
SMILES: CN(C)CCCNc1ncnc2oc(-c3ccccc3)c(-c3ccccc3)c12

SMILES: COc1cc(/C=C(\C#N)C(=O)Nc2ccccc2F)ccc1OCCN1CCOCC1
IC50 (H9c2): 8.88 µM (active)
IC50 (cells): > 67.5 µM (inactive)
IC50 [3]: > 67.5 µM (inactive)

SMILES: C[C@H]1CCCCO[C@H](CN(C)Cc2ccc(C(F)(F)F)cc2)[C@@H](C)CN([C@@H](C)CO)C(=O)c2cc(NC(=O)c3ccccc3)ccc2O1
AC50 (Paired box protein Pax-8): 8.95 µM (active)
AC50 [25]: 21.2 µM (active)
AC50 [26]: 36.4 µM (active)

AC50 [27]: > 100 µM (inactive)
EC50 (Mu-type opioid receptor): 92.5 µM (inactive)
EC50 [28]: 1.02 µM (active)
SMILES: COc1cc(Br)cc(CN2CCN(c3ncccn3)CC2)c1O

SMILES: O=C(N/N=C/c1ccc(Cl)c([N+](=O)[O-])c1)c1ccc2c(c1)OCCO2
IC50 [29]: 4.44 µM (active)
IC50 [18]: 1.93 µM (active)
IC50 [19]: 7.3 µM (active)
IC50 [21]: 2.29 µM (active)
IC50 [30]: > 66.6 µM (inactive)
IC50 [31]: 9.57 µM (active)
IC50 [32]: 10.9 µM (inactive)

SMILES: COc1cccc(-c2cc(C(=O)N3CCN(C(c4ccccc4)c4ccccc4)CC3)no2)c1
EC50 [33]: 1.61 µM (active)
EC50 [34]: 25.2 µM (active)
IC50 (Beta-galactosidase): > 80 µM (inactive)

AC50 [35]: > 20 µM (inactive)
SMILES: Nc1ccc2nn(-c3cc([N+](=O)[O-])ccc3O)nc2c1

EC50 (Mu-type opioid receptor): 92.5 µM (inactive)
EC50 [28]: 76.1 µM (inactive)
SMILES: COc1ccc(CN2CCN(C(=O)c3cccs3)CC2)cc1

IC50 [32]: 50.8 µM (inactive)
SMILES: COc1ccc(C(=O)Nc2nc3cc4c(cc3s2)OCO4)c(OC)c1
